Results: patent publication US11028127B2, “Peptides capable of reactivating p53 mutants” (Yeda Research and Development Co. Ltd., priority 2013, dated 2021)
Where no end group is shown, it is not given here. The star is where a group is joined. Myristoyl = CCCCCCCCCCCCCC(=O)*

Tested on: Mut-p53
Assay: Total activity score over combined assays (Table 8)
Parameters: scale not given here
Conditions: for Activity Score: Table 10 summary of activity of the peptides tested; for AS (Activity Score): total score of Table 7; for Conformation, activity score / PCR, activity score: Table 8; for Conformation, activity score: the 14 score columns c4-c17 stand under the heads Conformation, DNA binding, Viability, PCR; for PCR, activity score: head span not shown
From the text: Several alternative and complementary methods to screen lead peptide candidates for conformational and functional effects on Mut-p53 were employed. For increased penetration of peptide across cell membranes each peptide contains 3-6 Arginine residues either as part of its sequence or added either at its N-terminus or its C-terminus. […] In-vitro based assays for evaluation were first performed, such as ELISA for assessment of p53 conformation and sequence-specific DNA binding of p53.

Substance	Activity Score	AS (Activity Score)	Conformation, activity score	PCR, activity score
pCAP265 (EEPDRQPSGKRGGRKRRSR)	3	–	–	–
pCAP134 (IRILMFLIGCGRRRRRRRR)	40	40	–	–
pCAP220 (STTHPHPGTSAPEPATRRR)	6	–	–	–
pCAP132 (NHPWQFPNRWTRRRRRR)	7	7	–	–
pCAP102 (SSVHHRG)	3	3	–	–
pCAP202 (DEDAKFRIRILMRR)	8	–	3	–
pCAP290 (RYKEPRITPRE)	6	–	–	–
pCAP145 (HSSHHHPVHSWNRRRRRRR)	7	7	–	–
pCAP30 (TIHPSIS)	16	16	–	–
pCAP323 (Myristoyl-DLHTIHIPRDRR)	0	–	–	–
pCAP141 (SWQALALYAAGWRRRRRR)	29	29	–	–
pCAP21 (NHPWQFPNRWTV)	29	29	–	–
pCAP43 (TDSHSHH)	15	15	–	–
pCAP26 (DEFHSFYTARQTG)	0	0	–	–
pCAP122 (HSYSPYYTFRQH)	5	5	–	–
pCAP324 (SHDFPHREPRPERR)	0	–	–	–
pCAP177 (HFSHH)	0	0	–	–
pCAP12 (GGGGGGGGGGGG)	0	0	–	–
pCAP86 (FGSHHEL)	0	0	–	–
pCAP258 (FLIGPDRLIRSR)	23	–	–	4
pCAP9 (TIIHREDEDEIEW)	17	17	–	–
pCAP109 (GPIKHHLQHH)	4	4	–	–
pCAP136 (SILTLRLRRLRRRRRRRR)	14	14	–	–

Substance	Activity Score	AS (Activity Score)	Conformation, activity score	PCR, activity score
pCAP120 (SIRTLGRFLIIRV)	3	3	–	–
pCAP89 (SILTLSCRCRLRLWR)	8	8	–	–
pCAP93 (ATQHHYIK)	17	17	–	–
pCAP296 (RPADRIRR)	0	–	–	–
pCAP98 (HSSGHNFVLVRQ)	2	2	–	–
pCAP33 (SILTLRLRRLRR)	16	16	–	–
pCAP3 (FWTQSIKERKMLNEHDFEVR)	12	12	–	–
pCAP238 (TSPHPSLPRHIYPRR)	6	–	–	–
pCAP81 (VRCIFRGIWVRL)	2	2	–	–
pCAP169 (SFILI)	0	0	–	–
pCAP229 (Myristoyl-PRVLPSPHTIHPSQYP)	36	–	–	4
pCAP146 (HANLHHTRRRRRRRRRRR)	11	11	–	–
pCAP88 (SYQTMQP)	6	6	–	–
pCAP51 (AILTLILRRVIWP)	4	4	–	–
pCAP299 (ILQPDFLIRPE)	2	–	–	–
pCAP91 (STTHIHA)	7	7	–	–
pCAP219 (SYRHYSDHWEDRRR)	1	–	–	–
pCAP168 (CRIIR)	0	0	–	–
pCAP206 (RRRSHSQENVDQDTDE)	19	–	–	6
pCAP155 (IRGRIIRRRRRRRRRR)	41	41	–	–
pCAP279 (RDTIERPEIRR)	6	–	–	–
pCAP68 (YRRLLIGMMWRRRRRRRRRRR)	39	39	–	–
pCAP53 (ILVIIQRIM)	3	3	–	–

Substance	Activity Score	AS (Activity Score)	Conformation, activity score	PCR, activity score
pCAP248 (EIYGESGKTDEHALDTEYRR)	0	–	–	–
pCAP307 (HDPRIIRIR)	2	–	–	–
pCAP10 (VAEFAQSIQSRIVEWKERLD)	8	8	–	–
pCAP87 (HANLHHT)	37	37	–	–
pCAP119 (HSAHHTM)	0	0	–	–
pCAP310 (RLRCLLLLIGRVGRR)	4	–	–	–
pCAP158 (SFILFIRRGRLGRGDR)	18	18	–	–
pCAP201 (HPTHPIRLRDNLTR)	3	–	–	–
pCAP271 (SPHPPYSPHPPYSPHPPYP)	0	–	–	–
pCAP70 (SILTLSRGRKKRRQRRRR)	33	33	–	–
pCAP41 (WHHRQQIPRPLE)	2	2	–	–
pCAP58 (SILPLFLIRRSG)	5	5	–	–
pCAP150 (IIRGNFLIGGRLRRRRRRRRR)	26	26	–	–
pCAP52 (SPYPIRT)	3	3	–	–
pCAP287 (RDFERTIVDI)	8	–	–	–
pCAP269 (DEPLPPPERRR)	0	–	–	–
pCAP300 (RIRRDPDSPLPHPE)	0	–	–	–
pCAP36 (YPTQGHLR)	39	39	–	–
pCAP92 (FPHLVSSLTT)	7	7	–	–
pCAP125 (ELGLHRH)	0	0	–	–
pCAP306 (Myristoyl-RLIRIRILM)	6	–	–	–
pCAP71 (WTLSNYLGGRKKRRQRRRR)	2	2	–	–
pCAP235 (RSYSKLLCLLERLRISP)	11	–	–	–

Substance	Activity Score	AS (Activity Score)	Conformation, activity score	PCR, activity score
pCAP151 (CILRLWWRRRRRRRRRRR)	33	33	–	–
pCAP204 (MSTESNMPRLIQNDDRRR)	20	–	–	5
pCAP283 (RRPADQISYLHPPER)	0	–	–	–
pCAP113 (HTTAHTH)	3	3	–	–
pCAP57 (LMSNAQY)	8	8	–	–
pCAP217 (HSTPHPPQPPERRR)	2	–	–	–
pCAP228 (DEDAAHSTGHPHNSQHRRRR)	3	–	–	–
pCAP84 (GRRRFCM)	0	0	–	–
pCAP67 (LHSKTLVLGGGRRRRGDR)	2	2	–	–
pCAP223 (SPWTHERRCRQR)	0	–	–	–
pCAP242 (Myristoyl-RRLIVRILKLPNPPER)	67	–	4	6
pCAP203 (RRRHDSCHNQLQNYDHSTE)	42	–	–	4
pCAP69 (SILTLSRRRRRRRRRR)	0	0	–	–
pCAP104 (LLRLGLI)	21	21	–	–
pCAP262 (ESKTGHKSEEQRLRRYR)	0	–	–	–
pCAP118 (SNHHHRHHTNTH)	13	13	–	–
pCAP298 (RRIRDPLGNEHE)	3	–	–	–
pCAP275 (Myristoyl-MTYSDMPRRIITDEDRRR)	6	–	–	–
pCAP234 (HRTGHYTRCRQRCRSRSHNRH)	2	–	–	–
pCAP170 (IRILM)	27	27	–	–
pCAP60 (SFILFIRRGRLG)	40	40	–	–
pCAP255 (DPEPPRYLPPPPERR)	0	–	–	–
pCAP13 (HFSHHLK)	4	4	–	–

Substance	Activity Score	AS (Activity Score)	Conformation, activity score	PCR, activity score
pCAP140 (TDSHSHHRRRRRRRRRRR)	6	6	–	–
pCAP154 (LRCLLLLIGRVGRKKRRQRR)	57	57	–	–
pCAP161 (HNAH)	29	29	–	–
pCAP17 (LHSKTLVL)	23	23	–	–
pCAP211 (PDSEPPRMELRRR)	0	–	–	–
pCAP123 (GLCRIIL)	3	3	–	–
pCAP222 (RYEENNGVNPPVQVFESRTR)	4	–	–	–
pCAP25 (YRRLLIGMMW)	0	0	–	–
pCAP252 (RRVILRSYDGGHSTPHPD)	0	–	–	–
pCAP90 (SCRCRLR)	12	12	–	–
pCAP232 (RSRSSHLRDHERTHT)	0	–	–	–
pCAP94 (LRFIDYP)	4	4	–	–
pCAP152 (YRRLLIGMRRRRRRRRRRRR)	11	11	–	–
pCAP205 (RCRNRKKEKTECLQKESEK)	5	–	–	–
pCAP61 (KDLPFYSHLSRQ)	17	17	–	–
pCAP50 (WSEYDIPTPQIPP)	0	0	–	–
pCAP243 (RRCRSILPLLLLSR)	2	–	–	–
pCAP76 (GGGGGGGGGRRRRRRR)	0	0	–	–
pCAP256 (RTLHGRRVILHEGGHSISDLK)	2	–	–	–
pCAP107 (DRLSVFLFIM)	0	0	–	–
pCAP213 (RRIKMIRTSESFIQHIVS)	5	–	–	–
pCAP37 (KLQVPIK)	6	6	–	–
